What was measured:
Details in all cases: incubation time: 72 h
BT-474 = experiment: normalised viability (% of control), CellTiter-Blue; higher = more viable cells (about 100 = DMSO control)
Procedure: (§1)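 DSRT, CellTiter-Blue viability, 72 h incubation. Signal is normalised to DMSO and benzethonium chloride controls. Value is the normalised response at dose 3.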

BT-549 [1] = experiment: as above
Procedure: as §1

CAL-120 = experiment: as above
Procedure: as §1

CAL-148 [2] = experiment: as above
Procedure: as §1

CAL-51 [3] = experiment: as above
Procedure: as §1

CAL-85-1 = experiment: as above
Procedure: as §1

DU-4475 [4] = experiment: as above
Procedure: as §1

HCC1143 [5] = experiment: as above
Procedure: as §1

HCC1599 [6] = experiment: as above
Procedure: as §1

HCC1937 [7] = experiment: as above
Procedure: as §1

HDQ-P1 = experiment: as above
Procedure: as §1

Hs578T [8] = experiment: as above
Procedure: as §1

MDA-MB-231 [9] = experiment: as above
Procedure: as §1

MDA-MB-436 = experiment: as above
Procedure: as §1

MDA-MB-453 = experiment: as above
Procedure: as §1

MDA-MB-468 [10] = experiment: as above
Procedure: as §1

MFM-223 = experiment: as above
Procedure: as §1

SK-BR-3 = experiment: as above
Procedure: as §1

BT-549 [11] = experiment: normalised viability (% of control), CellTiter-Blue; higher = more viable cells (about 100 = DMSO control); remark: listed apart in the source
Summary of the method: (§2)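 The reported figure is normalised viability at a single listed concentration of the series. Breast cancer cell lines (20 µl suspension) went onto 384-well plates holding compound in 5 µl medium for 72 h. CellTiter-Blue (2.5 µl, 2 h, 37 °C) was read by fluorescence at 560/590 nm, and each plate was scaled to vehicle at 100 and a positive kill control at 0.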

CAL-148 [12] = experiment: as above; remark: listed apart in the source
Summary of the method: as §2

CAL-51 [13] = experiment: as above; remark: listed apart in the source
Summary of the method: as §2

DU-4475 [14] = experiment: as above; remark: listed apart in the source
Summary of the method: as §2

HCC1143 [15] = experiment: as above; remark: listed apart in the source
Summary of the method: as §2

HCC1599 [16] = experiment: as above; remark: listed apart in the source
Summary of the method: as §2

Hs578T [17] = experiment: as above; remark: listed apart in the source
Summary of the method: as §2

MDA-MB-231 [18] = experiment: as above; remark: listed apart in the source
Summary of the method: as §2

MDA-MB-468 [19] = experiment: as above; remark: listed apart in the source
Summary of the method: as §2

HCC1937 [20] = experiment: drug sensitivity score (DSS), CellTox Green (DSS (AUC-based score)); higher = stronger drug effect (viability inhibition or cytotoxicity); extreme values may be limits of the assay
Summary of the method: (§3)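 After 72 h of incubation in 384-well plates with compound at 5 concentrations (10-fold steps, 10,000-fold range set per compound), breast cancer cell lines seeded in 20 µl suspension were read first for CellTox Green fluorescence at 485/520 nm. CellTiter-Glo luminescence was measured next, after 10 min at room temperature. Normalisation on each plate used 0.1 % DMSO and a positive kill control, and the drug sensitivity score was computed from the area under the fitted dose-response curve.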

Hs578T [21] = experiment: as above
Summary of the method: as §3

C[C@@]1(C(=O)Nc2ccc(F)nc2)CCCN1c1nc(Nc2cc(C3CC3)n[nH]2)c2cccn2n1
Details | normalised viability [%]
BT-474, 100 nM | 118
BT-549 [1], 100 nM | 109
BT-549 [11], 10 nM | 97.8
BT-549 [11], 1000 nM | 77.6
BT-549 [11], 10000 nM | 34.4
CAL-51 [3], 10 nM | 97
CAL-51 [13], 3 nM | 99
CAL-51 [13], 30 nM | 97.4
CAL-51 [13], 100 nM | 84.9
CAL-85-1, 10 nM | 93.5
CAL-120, 100 nM | 91.8
CAL-148 [2], 10 nM | 94
CAL-148 [12], 3 nM | 88.5
CAL-148 [12], 30 nM | 99.1
CAL-148 [12], 100 nM | 95.1
DU-4475 [4], 10 nM | 90.4
DU-4475 [14], 3 nM | 97.3
DU-4475 [14], 30 nM | 91.7
DU-4475 [14], 100 nM | 83.8
HCC1143 [5], 100 nM | 72.8
HCC1143 [15], 10 nM | 105
HCC1143 [15], 1000 nM | 64.1
HCC1143 [15], 10000 nM | 45.6
HCC1599 [6], 100 nM | 73.3
HCC1599 [16], 10 nM | 92.5
HCC1599 [16], 1000 nM | 55
HCC1599 [16], 10000 nM | 54.1
HCC1937 [7], 100 nM | 88.3
HDQ-P1, 10 nM | 89.5
Hs578T [8], 100 nM | 79.4
Hs578T [17], 10 nM | 114
Hs578T [17], 1000 nM | 75.8
Hs578T [17], 10000 nM | 38.1
MDA-MB-231 [9], 100 nM | 93.8
MDA-MB-231 [18], 10 nM | 90.6
MDA-MB-231 [18], 1000 nM | 46
MDA-MB-231 [18], 10000 nM | 31.4
MDA-MB-436, 100 nM | 92.6
MDA-MB-453, 10 nM | 112
MDA-MB-468 [10], 100 nM | 101
MDA-MB-468 [19], 10 nM | 115
MDA-MB-468 [19], 1000 nM | 61
MDA-MB-468 [19], 10000 nM | 40.7
MFM-223, 100 nM | 88.2
SK-BR-3, 100 nM | 92.6

Details | drug sensitivity score
HCC1937 [20] | 0
Hs578T [21] | 0

COc1c(C)cnc(Cn2cnc3c(Cl)nc(N)nc32)c1C [BIIB021]
Details | normalised viability [%]
BT-474, 100 nM | 59.4
BT-549 [1], 100 nM | 52.6
BT-549 [11], 10 nM | 87.8
BT-549 [11], 1000 nM | 36.5
BT-549 [11], 10000 nM | 31.1
CAL-51 [3], 10 nM | 100
CAL-51 [13], 3 nM | 103
CAL-51 [13], 30 nM | 102
CAL-51 [13], 100 nM | 101
CAL-85-1, 10 nM | 87.5
CAL-120, 100 nM | 27.6
CAL-148 [2], 10 nM | 82.3
CAL-148 [12], 3 nM | 87
CAL-148 [12], 30 nM | 88.6
CAL-148 [12], 100 nM | 72.3
DU-4475 [4], 10 nM | 82.6
DU-4475 [14], 3 nM | 94.8
DU-4475 [14], 30 nM | 76.1
DU-4475 [14], 100 nM | 80.8
HCC1143 [5], 100 nM | 58.8
HCC1143 [15], 10 nM | 80.8
HCC1143 [15], 1000 nM | 32.1
HCC1143 [15], 10000 nM | 30.6
HCC1599 [6], 100 nM | 101
HCC1599 [16], 10 nM | 102
HCC1599 [16], 1000 nM | 58.8
HCC1599 [16], 10000 nM | 40.7
HCC1937 [7], 100 nM | 59.6
HDQ-P1, 10 nM | 114
Hs578T [8], 100 nM | 64.7
Hs578T [17], 10 nM | 95.3
Hs578T [17], 1000 nM | 61
Hs578T [17], 10000 nM | 46.9
MDA-MB-231 [9], 100 nM | 61.4
MDA-MB-231 [18], 10 nM | 86.1
MDA-MB-231 [18], 1000 nM | 34.1
MDA-MB-231 [18], 10000 nM | 23.8
MDA-MB-436, 100 nM | 89.8
MDA-MB-453, 10 nM | 76.4
MDA-MB-468 [10], 100 nM | 68.9
MDA-MB-468 [19], 10 nM | 93.5
MDA-MB-468 [19], 1000 nM | 43.2
MDA-MB-468 [19], 10000 nM | 21.3
MFM-223, 100 nM | 53.9
SK-BR-3, 100 nM | 23.9

Details | drug sensitivity score
HCC1937 [20] | 0
Hs578T [21] | 3.62

CC(C)C[C@H](NC(=O)[C@H](Cc1ccccc1)NC(=O)c1cnccn1)B(O)O [Bortezomib]
Details | normalised viability [%]
BT-474, 10 nM | 50.8
BT-549 [1], 10 nM | 39.5
BT-549 [11], 1 nM | 99.8
BT-549 [11], 100 nM | 6.67
BT-549 [11], 1000 nM | 3.15
CAL-51 [3], 1 nM | 99.9
CAL-51 [13], 0.3 nM | 101
CAL-51 [13], 3 nM | 97.9
CAL-51 [13], 10 nM | 97.7
CAL-85-1, 1 nM | 106
CAL-120, 10 nM | 27.3
CAL-148 [2], 1 nM | 91.2
CAL-148 [12], 0.3 nM | 99.6
CAL-148 [12], 3 nM | 89
CAL-148 [12], 10 nM | 94.4
DU-4475 [4], 1 nM | 120
DU-4475 [14], 0.3 nM | 113
DU-4475 [14], 3 nM | 93.4
DU-4475 [14], 10 nM | 98.8
HCC1143 [5], 10 nM | 52.1
HCC1143 [15], 1 nM | 81
HCC1143 [15], 100 nM | 19.4
HCC1143 [15], 1000 nM | 17.4
HCC1599 [6], 10 nM | 110
HCC1599 [16], 1 nM | 130
HCC1599 [16], 100 nM | 64.5
HCC1599 [16], 1000 nM | 45.2
HCC1937 [7], 10 nM | 19.6
HDQ-P1, 1 nM | 83.8
Hs578T [8], 10 nM | 87.6
Hs578T [17], 1 nM | 91.1
Hs578T [17], 100 nM | 2.89
Hs578T [17], 1000 nM | 0.76
MDA-MB-231 [9], 10 nM | 16.2
MDA-MB-231 [18], 1 nM | 92.4
MDA-MB-231 [18], 100 nM | 2.05
MDA-MB-231 [18], 1000 nM | 0.27
MDA-MB-436, 10 nM | 98.9
MDA-MB-453, 1 nM | 105
MDA-MB-468 [10], 10 nM | 12
MDA-MB-468 [19], 1 nM | 88.3
MDA-MB-468 [19], 100 nM | 3.55
MDA-MB-468 [19], 1000 nM | 2.21
MFM-223, 10 nM | 38.1
SK-BR-3, 10 nM | 22.4

Details | drug sensitivity score
HCC1937 [20] | 21.4
Hs578T [21] | 17.3

CS(=O)(=O)OCCCCOS(C)(=O)=O [Busulfan]
Details | normalised viability [%]
BT-474, 1000 nM | 110
BT-549 [1], 1000 nM | 85.1
BT-549 [11], 100 nM | 84
BT-549 [11], 10000 nM | 92.4
BT-549 [11], 100000 nM | 68.2
CAL-51 [3], 100 nM | 95.3
CAL-51 [13], 30 nM | 103
CAL-51 [13], 300 nM | 95.4
CAL-51 [13], 1000 nM | 94.6
CAL-85-1, 100 nM | 115
CAL-120, 1000 nM | 113
CAL-148 [2], 100 nM | 106
CAL-148 [12], 30 nM | 124
CAL-148 [12], 300 nM | 111
CAL-148 [12], 1000 nM | 115
DU-4475 [4], 100 nM | 91.4
DU-4475 [14], 30 nM | 96.1
DU-4475 [14], 300 nM | 89.2
DU-4475 [14], 1000 nM | 94.7
HCC1143 [5], 1000 nM | 124
HCC1143 [15], 100 nM | 104
HCC1143 [15], 10000 nM | 108
HCC1143 [15], 100000 nM | 108
HCC1599 [6], 1000 nM | 101
HCC1599 [16], 100 nM | 90.2
HCC1599 [16], 10000 nM | 75.4
HCC1599 [16], 100000 nM | 109
HCC1937 [7], 1000 nM | 94.6
HDQ-P1, 100 nM | 98.1
Hs578T [8], 1000 nM | 91.2
Hs578T [17], 100 nM | 103
Hs578T [17], 10000 nM | 101
Hs578T [17], 100000 nM | 85.7
MDA-MB-231 [9], 1000 nM | 99.5
MDA-MB-231 [18], 100 nM | 94.3
MDA-MB-231 [18], 10000 nM | 95.4
MDA-MB-231 [18], 100000 nM | 94.3
MDA-MB-436, 1000 nM | 93.3
MDA-MB-453, 100 nM | 102
MDA-MB-468 [10], 1000 nM | 114
MDA-MB-468 [19], 100 nM | 99.1
MDA-MB-468 [19], 10000 nM | 109
MDA-MB-468 [19], 100000 nM | 90.5
MFM-223, 1000 nM | 90.3
SK-BR-3, 1000 nM | 97.5

Details | drug sensitivity score
HCC1937 [20] | 0
Hs578T [21] | 0

Source: the supplement of paper PMC4862054
